According to patent publication US8853490B2 (priority 2010, dated 2014):
Where two headings read alike, the source gives them in different places.

How the values were obtained:
[1] = test system: Fusarium graminearum (FGR; isolate 73B ISU); assay type: cell-based
[2] = test system: Diplodia maydis (DMA; isolate Warren-IN-96); assay type: cell-based
[3] = test system: Colletotrichum graminicola (CGR; isolate Carroll-IA-99); conditions: general statement on parent polypeptides; cited from earlier work
[4] = test system: Fusarium graminearum (FGR; isolate 73B ISU); conditions: general statement on parent polypeptides; cited from earlier work
[5] = test system: Fusarium verticillioides (FVE; isolate MO33); conditions: general statement on parent polypeptides; cited from earlier work
[6] = test system: Diplodia maydis (DMA; isolate Warren-IN-96); conditions: general statement on parent polypeptides; cited from earlier work
[7] = test system: Colletotrichum graminicola (CGR; isolate Carroll-IA-99); assay type: cell-based
[8] = test system: Fusarium verticillioides (FVE; isolate MO33); assay type: cell-based

## LB-5220 (ps 1B4): LBNL variant generated through gene shuffling of the LB-5220 mature peptide coding sequence (LKYTGTCTRKNNQCKYRGQNNRDTFVKCPTFANKRCTRDGAPCSFDSYSRAVTCD; Synthetic peptide LB-5220 (ps-1B4))
[1]; high salt conditions
  In vitro antifungal activity (IC50) against F. graminearum (FGR): >100 ppm
[1]; low salt conditions
  In vitro antifungal activity (IC50) against F. graminearum (FGR): >10 ppm

## LB-5220 (r2 5G7): LBNL variant generated through gene shuffling of the LB-5220 mature peptide coding sequence (LKYTGTCRRANNQCKYKGQNNRDTFVKCPTFANKKCTRDGAKCSFDSYSRAVTCD; Synthetic peptide LB-5220 (r2-5G7))
[1]; high salt conditions
  In vitro antifungal activity (IC50) against F. graminearum (FGR): >100 ppm
[1]; low salt conditions
  In vitro antifungal activity (IC50) against F. graminearum (FGR): >10 ppm

## LB-5220 (r2 6F2): LBNL variant generated through gene shuffling of the LB-5220 mature peptide coding sequence (LKYTGTCRRANNQCKYKGQNNRDTFVKCPTFANKKCTRDGEKCSFDSYSRAVTCD; LB-5220 (r2-6F2))
[1]; high salt conditions
  In vitro antifungal activity (IC50) against F. graminearum (FGR): >100 ppm
[1]; low salt conditions
  In vitro antifungal activity (IC50) against F. graminearum (FGR): >10 ppm

## LB-5220: parent antifungal polypeptide isolated from Penicillium simplicissimum, previously disclosed in U.S. Pat. No. 7,306,946 (LKYTGTCTRANNQCKYKGQNDRDTFVKCPTFANKKCTRDGAPCSFDSYSRAVTCD; listed as Penicillium simplicissimum) [reference compound]
[1]; high salt conditions
  In vitro antifungal activity (IC50) against F. graminearum (FGR): >100 ppm
[1]; low salt conditions
  In vitro antifungal activity (IC50) against F. graminearum (FGR): >10 ppm
[2]; high salt conditions
  In vitro antifungal activity (IC50) against D. maydis (DMA): 50 ppm
[2]; low salt conditions
  In vitro antifungal activity (IC50) against D. maydis (DMA): <0.1 ppm
[3]
  antifungal activity against Colletotrichum graminicola (CGR), in words: exhibit antifungal activity
[4]
  antifungal activity against Fusarium graminearum (FGR), in words: exhibit antifungal activity
[5]
  antifungal activity against Fusarium verticillioides (FVE), in words: exhibit antifungal activity
[6]
  antifungal activity against Diplodia maydis (DMA), in words: exhibit antifungal activity

## LB-9827-1: parent antifungal polypeptide from the fungus Monascus ruber, previously disclosed in U.S. Pat. No. 7,306,946 (LSKFGGECSLKHNTCTYLKGGKNHVVNCGSAANKKCKSDRHHCEYDEHHKRVDCQTPV; Monascus ruber) [reference compound]
[7]; high salt conditions
  In vitro antifungal activity (IC50) against C. graminicola (CGR): 3 ppm
[7]; low salt conditions
  In vitro antifungal activity (IC50) against C. graminicola (CGR): 1.5 ppm
[1]; high salt conditions
  In vitro antifungal activity (IC50) against F. graminearum (FGR): 1.5 ppm
[1]; low salt conditions
  In vitro antifungal activity (IC50) against F. graminearum (FGR): <0.1 ppm
[2]; high salt conditions
  In vitro antifungal activity (IC50) against D. maydis (DMA): 12 ppm
[2]; low salt conditions
  In vitro antifungal activity (IC50) against D. maydis (DMA): 1.5 ppm
[3]
  antifungal activity against Colletotrichum graminicola (CGR), in words: exhibit antifungal activity
[4]
  antifungal activity against Fusarium graminearum (FGR), in words: exhibit antifungal activity
[5]
  antifungal activity against Fusarium verticillioides (FVE), in words: exhibit antifungal activity
[6]
  antifungal activity against Diplodia maydis (DMA), in words: exhibit antifungal activity

## LB-9827-3A-11E4: LBNL variant generated through gene shuffling of the LB-9827-1 mature peptide coding sequence (LSKYGGECSRKHNTCTYKKGGKNQIVNCPTAANKRCKTDRHHCEYDEYHRRVDCQTPV; LB-9827-3A-11E4)
[1]; high salt conditions
  In vitro antifungal activity (IC50) against F. graminearum (FGR): 0.63 ppm
[8]
  In vitro antifungal activity (IC50) against F. verticillioides (FVE): 15 ppm

## LB-9827-3B-21E10: LBNL variant generated through gene shuffling of the LB-9827-1 mature peptide coding sequence (LSKYGGECSRAHNTCTYRKGGKNQVVNCPSAANKKCKSDRHHCEYDEYHKRVDCQTPV; Synthetic peptide LB-9827-3B-21E10)
[1]; high salt conditions
  In vitro antifungal activity (IC50) against F. graminearum (FGR): 1.25 ppm
[8]
  In vitro antifungal activity (IC50) against F. verticillioides (FVE): 30 ppm

## LB-9827-3B-25F2: LBNL variant generated through gene shuffling of the LB-9827-1 mature peptide coding sequence (LSKYGGECSREHNTCTYLKGGKNQVVACGSAANKKCKRDRHHCEYDDYHKTVDCQTPV; Synthetic peptide LB-9827-3B-25F2)
[1]; high salt conditions
  In vitro antifungal activity (IC50) against F. graminearum (FGR): 2.5 ppm
[8]
  In vitro antifungal activity (IC50) against F. verticillioides (FVE): 15 ppm

## LB-9827-3B-25G5: LBNL variant generated through gene shuffling of the LB-9827-1 mature peptide coding sequence (LSKYGGECSRAHNTCTYRKGGKNQVVKCGTAANKKCKSDRHHCEYDDYHKRVDCQTPV; Synthetic peptide LB-9827-3B-25G5)
[1]; high salt conditions
  In vitro antifungal activity (IC50) against F. graminearum (FGR): 2.5 ppm
[8]
  In vitro antifungal activity (IC50) against F. verticillioides (FVE): 3.8 ppm
